Test results reported in the CheMixHub ionic liquid set.

Test: xn = mol fraction of the nth substance listed
Conditions: 101 kPa

CCCCCCCCCCCCCCCC[n+]1ccccc1.O=C([O-])c1ccccc1O + NCC(=O)NCC(=O)O + O
electrical conductivity [S/m]
Conditions | 293.15 K | 298.15 K | 303.15 K | 308.15 K | 313.15 K
x2 = 0.0009002, x1 = 3.6e-07 | 0.0016 | 0.0019 | 0.00224 | 0.00265 | 0.00314
x2 = 0.0009002, x1 = 7.2e-07 | 0.00178 | 0.0021 | 0.00248 | 0.0029 | 0.00341
x2 = 0.0009002, x1 = 1.09e-06 | 0.00197 | 0.00232 | 0.00272 | 0.00318 | 0.00371
x2 = 0.0009002, x1 = 1.27e-06 | 0.00204 | 0.00241 | 0.00282 | 0.00329 | 0.00384
x2 = 0.0009002, x1 = 1.63e-06 | 0.00215 | 0.00253 | 0.00296 | 0.00345 | 0.00402
x2 = 0.0009002, x1 = 1.99e-06 | 0.00228 | 0.00269 | 0.00318 | 0.00366 | 0.00426
x2 = 0.0009002, x1 = 2.36e-06 | 0.00242 | 0.00285 | 0.00336 | 0.00389 | 0.00452
x2 = 0.0009002, x1 = 2.72e-06 | 0.00254 | 0.00298 | 0.0035 | – | 0.00473
x2 = 0.0009002, x1 = 3.08e-06 | 0.00261 | 0.00307 | 0.0036 | 0.00419 | 0.00487
x2 = 0.0009002, x1 = 3.44e-06 | 0.00272 | 0.00319 | 0.00373 | 0.00434 | 0.00504
x2 = 0.0009002, x1 = 3.81e-06 | 0.00285 | 0.00334 | 0.00389 | 0.00452 | 0.00524
x2 = 0.0009002, x1 = 4.35e-06 | 0.00298 | 0.00348 | 0.00404 | 0.00468 | 0.00543
x2 = 0.0009002, x1 = 4.71e-06 | 0.00311 | 0.00362 | 0.00422 | 0.00487 | 0.00562
x2 = 0.0009002, x1 = 5.26e-06 | 0.00322 | 0.00374 | 0.00435 | 0.00501 | 0.00579
x2 = 0.0009002, x1 = 5.62e-06 | 0.00334 | – | 0.0045 | 0.00518 | 0.00595
x2 = 0.001799, x1 = 1.8e-07 | 0.00253 | 0.00303 | 0.00363 | 0.00434 | 0.00519
x2 = 0.001799, x1 = 3.6e-07 | 0.0026 | 0.00311 | 0.00371 | 0.00444 | 0.00529
x2 = 0.001799, x1 = 5.5e-07 | 0.00269 | 0.00321 | 0.00382 | 0.00456 | –
x2 = 0.001799, x1 = 7.3e-07 | 0.00282 | 0.00336 | 0.00389 | 0.00475 | 0.00563
x2 = 0.001799, x1 = 9.1e-07 | 0.00291 | 0.00345 | 0.0041 | 0.00487 | 0.00576
x2 = 0.001799, x1 = 1.28e-06 | 0.00301 | 0.00357 | 0.00422 | 0.00501 | 0.00592
x2 = 0.001799, x1 = 1.46e-06 | 0.00313 | 0.0037 | 0.00438 | 0.00519 | 0.00613
x2 = 0.001799, x1 = 1.82e-06 | 0.00325 | 0.00384 | 0.00454 | 0.00537 | 0.00632
x2 = 0.001799, x1 = 2.19e-06 | 0.00335 | 0.00397 | 0.00469 | 0.00555 | 0.00653
x2 = 0.001799, x1 = 2.55e-06 | 0.00347 | 0.0041 | 0.00484 | 0.00572 | 0.00673
x2 = 0.001799, x1 = 2.92e-06 | 0.00355 | 0.00419 | 0.00495 | 0.00584 | 0.00688
x2 = 0.001799, x1 = 3.1e-06 | – | – | – | – | 0.00701
x2 = 0.001799, x1 = 3.46e-06 | 0.00371 | 0.00437 | 0.00515 | 0.00607 | 0.00715
x2 = 0.001799, x1 = 3.83e-06 | 0.00379 | 0.00447 | 0.00526 | 0.00619 | 0.00728
x2 = 0.001799, x1 = 4.01e-06 | – | – | – | – | 0.00738
